Consider 2 compounds from paper PMC5612938, “A multiple biomarker assay for quality assessment of botanical drugs using a versatile microfluidic chip” (Scientific Reports, 2017).

The target of this assay is T1, Thrombin (from human plasma) (Homo sapiens, UniProt P00734).
T1 construct: Thrombin (from human plasma); purchased Sigma-Aldrich; host or cells: human plasma
As to the kind of experiment: on-chip thrombin inhibition assay (S-2238 hydrolysis, absorbance 405 nm). Type of assay: biochemical. Conditions: for thrombin inhibition (in words): at tested concentrations. The procedure:
To enhance the performance of the on-chip assay, experimental parameters such as concentrations of enzymes and substrates, substrate reaction time, and incubation time of samples and enzymes were stepwise optimized. The activity of thrombin was determined by measuring the hydrolysis of chromogenic substrate S-2238 (HD-Phe-Pip-Arg-pNA) at 405 nm. As depicted in Fig. 2a, the absorbance increased rapidly along with the elevated concentrations of thrombin, while it reached a plateau at 0.5 U/mL. […] Moreover, it was clear from Fig. 2d that the maximum inhibitory effect of QSYQ sample (I1 of Table 1 in this assay) on thrombin was observed after 60 min of incubation. Therefore, to achieve favorable response and prevent signal saturation, optimal assay conditions for thrombin were determined to be 0.2 U/mL, 0.31 mM, 30 min and 60 min for the final concentrations of thrombin and S-2238, substrate reaction time and incubation time, respectively. […] In this assay, the concentrations of ACE and FAPGG were finally set at 0.027 U/mL and 0.72 mM, where the background value was lower and the reaction time was relatively shorter (30 min).
The optimized protocol was first applied to assess the quality of 11 batches of QSYQ intermediates (Table 1). Enzyme inhibition (in percentages) was employed as an indicator of drug quality and calculated according to the following equations: thrombin inhibition (%) = [1 − (AQSYQ/Ablank)] × 100; ACE inhibition (%) = [1 − (ΔAQSYQ/ΔAblank)] × 100; where AQSYQ and Ablank were the absorbance of the test sample and the blank sample after the enzymatic reaction (the background value was subtracted), and ΔAQSYQ and ΔAblank were the absorbance decrease between 0 min and 30 min of the samples. A scatter plot was generated to display the inhibition result of thrombin and ACE simultaneously. […] Moreover, artificial abnormal samples I6, I7 and I8, each with one abnormal (pre-extracted) herb, presented relatively lower inhibitions compared with I1.
Thrombin (from human plasma), ACE (from rabbit lung), FAPGG and captopril were purchased from Sigma-Aldrich (St. Louis, USA). S-2238 was obtained from Aglyco (Beijing, China). AEBSF-HCl was purchased from Selleckchem (Houston, USA). Trizma base (Tris) was obtained from Sangon Biotech (Shanghai, China) and dimethyl sulfoxide (DMSO) from J&K Scientific (Beijing, China). All other chemicals were purchased from Sinopharm Chemical (Shanghai, China) unless otherwise indicated. 0.2 M Phosphate buffer (PB, pH 6.5), and 50 mM Tris-HCl buffer (200 mM NaCl, pH 8.3) were prepared as assay buffers for thrombin and ACE, respectively.
MBs (10 mg/mL) were diluted 10 times in PB or Tris-HCl buffer, and 10 μL of the diluted MBs (1 mg/mL) were injected into one channel of the chip using a syringe infusion pump (Harvard Apparatus, USA) and retained by an external magnet. Then, 10 μL of thrombin or ACE solution was added and incubated with MBs for two hours at room temperature to form enzyme-MB complexes. The magnet was manually controlled to move MBs back and forth to enhance the ratio of reaction. Subsequently, MBs were washed twice in assay buffer and magnetically transferred to the other channel through the fluidic bridge, whose opening and closing was controlled by a pneumatic valve. Next, 10 μL of sample solutions of tested drug and 10 μL of enzymatic substrate were sequentially infused to the channel by the pump and incubated with the enzyme. When the enzymatic reaction was finished, the MBs were retained in the channel, and air was injected into the channel from the inlet using a syringe to push all the reacted solution to a 384-well plate. The absorbance of the solution was then monitored at 405 nm (for S-2238) or 340 nm (for FAPGG) using an Infinite F200 spectrophotometer (Tecan, Männedorf, Switzerland). Moreover, after detection, the reaction channel was washed three times by assay buffer to remove unbound constituents. […]

What is called IC50 is the concentration that inhibits the measured activity by half. As for `O=C(/C=C/c1ccc(O)c2c1[C@H](C(=O)O[C@H](Cc1ccc(O)c(O)c1)C(=O)O)[C@@H](c1ccc(O)c(O)c1)O2)O[C@H](Cc1ccc(O)c(O)c1)C(=O)O` [Salvianolic acid B], the “thrombin inhibition (in words)” value was “good thrombin inhibitions”. The compound further had an IC50 (for thrombin) of 81.9 µM.
Consider `O=C(O)C(O)Cc1ccc(O)c(O)c1` (stereo not shown) [Danshensu], for which the “thrombin inhibition (in words)” value is listed as “good thrombin inhibitions”. In addition, the inhibition rate (for thrombin, maximum inhibition rate observed in the assay) is given as 66.9%.
